Test results taken from US4551532A, “Ethylene glycol derivatives having anti-protozoan, anti-fungal and anti-tumor activity” (priority 1980, dated 1985).

Assays:
[1] = system: human myelocytic leukemia cells HL-60; assay: growth inhibiting effect (IG effect) on HL-60; assay type: cell-based; details: HL-60, 120 h, 5 day culture, read-out: IG effect on HL-60 GD50
Cochliobolus miyabeanus = assay: antifungal activity, serial dilution method; assay type: cell-based; details: Bipolaris oryzae
Pyricularia oryzae = assay: microbe, parasite or virus in culture; assay type: cell-based
Hamigera = assay: antimycotic activity, paper disk inhibition circle; assay type: cell-based; details: 48 h; 8 mm paper disk, 3 mg/ml, 37° C., 2 days; read-out: Growth inhibition Hamigera
Protocol: (§1) Referring to the antimycotic activity presented in Table 2, Cryptoccoccus neoformans and others were used as the test microbes, a paper disk (8 mm in diameter) was immersed in an aqueous solution of each test compound having a concentration of 3 mg/ml, air dried and placed on an agar medium, then incubation was conducted at 37° C. for 2 days, and the inhibition circle was measured. When the diameter of the inhibition circle was not larger than 8 mm, 8-10 mm, 10-20 mm, or larger than 20 mm, the activity was judged as -, ±, + or ++, respectively.

Cryptococcus neoformans = assay: antimycotic activity, paper disk inhibition circle; assay type: cell-based; details: 48 h, 8 mm paper disk, 3 mg/ml, 37° C., 2 days, read-out: Growth inhibition Cryptococcus
Protocol: as §1

Rhodotorula = assay: antimycotic activity, paper disk inhibition circle; assay type: cell-based; details: 48 h, 8 mm paper disk, 3 mg/ml, 37° C., 2 days, read-out: Growth inhibition Rhodotorula
Protocol: as §1

CDF1 mice = assay: toxicity in CDF1 mice; assay type: in vivo, mouse; details: intraperitoneal 100 mg/kg, observation period one week
Protocol: (§2) The compounds of this invention are of relatively low toxicity. For example, the compound of Example 7 causes no deaths in CDF1 mice even at an intraperitoneal dose of 100 mg/kg (observation period: one week). The hemolytic activity of these compounds is also low in general. For example, in a hemolysis test (with human erythrocytes) by the method of Gottfried et al. [J. Lipid Research, 4, 57 (1963)], the 50% hemolytic concentration of the compound of Example 15 was about 10 μg/ml.

Botrytis cinerea = assay: antifungal activity, serial dilution method; assay type: cell-based; details: Botrytis cinerea (gray mold); 1% glucose-bouillon agar
[2] = system: mouse spontaneous myelocytic leukemia cells MI (resistant clone); assay: cell proliferation inhibiting activity against MI cells; assay type: cell-based; details: read-out: cell proliferation inhibiting activity (GD50 value)
[3] = system: Rauscher virus-induced promyelocytic leukemia cells R453; assay: cell proliferation inhibiting activity against R453 cells; assay type: cell-based; details: Mus musculus, read-out: cell proliferation inhibiting activity (GD50 value)
Aspergillus niger = assay: antifungal activity, serial dilution method; assay type: cell-based; details: Aspergillus niger (black mold); 1% glucose-bouillon agar; read-out: MIC
Leptosphaeria salvinii = assay: antifungal activity, serial dilution method; assay type: cell-based; details: Nakataea oryzae; Leptosphaeria salvinii (rice stem rot); 1% glucose-bouillon agar; read-out: MIC
Saccharomyces cerevisiae = assay: antifungal activity, serial dilution method; assay type: cell-based; details: Saccharomyces cerevisiae (brewer's yeast); 1% glucose-bouillon agar; read-out: MIC
[4] = system: Tetrahymena pyriformis W strain; assay: antiprotozoal activity, broth dilution method; assay type: cell-based; details: 28° C., 44-48 hours, pH 7.0, read-out: Growth inhibition MIC Tetrahymena
[5] = system: Colletotrichum lagenarium; assay: antifungal activity, serial dilution method; assay type: cell-based; details: Colletotrichum orbiculare; Colletotrichum lagenarium (cucumber anthracnose); 1% glucose-bouillon agar; read-out: MIC
Penicillium = assay: antifungal activity, serial dilution method; assay type: cell-based, Penicillium niger; details: Penicillium niger (blue mold); 1% glucose-bouillon agar; read-out: MIC
human erythrocytes = assay: hemolysis test by the method of Gottfried et al.; assay type: cell-based; details: 5% human albumin, relative to without albumin
Protocol: as §2

[6] = hemolysis test by the method of Gottfried et al.; assay type: cell-based, human; details: human, erythrocytes
Protocol: as §2

Sclerotinia sclerotiorum = assay: antifungal activity, serial dilution method; assay type: cell-based; details: Sclerotinia sclerotiorum (kidney bean stem rot); 1% glucose-bouillon agar

SMILES	IC50 [1] [µg/mL]	MIC (Cochliobolus miyabeanus) [µg/mL]	MIC (Pyricularia oryzae) [µg/mL]	zone of inhibition at 3000 µg/mL (Hamigera) [mm]	zone of inhibition at 3000 µg/mL (Cryptococcus neoformans) [mm]	zone of inhibition at 3000 µg/mL (Rhodotorula) [mm]	deaths (CDF1 mice)	MIC (Botrytis cinerea) [µg/mL]	IC50 [2] [µg/mL]	IC50 [3] [µg/mL]	MIC (Aspergillus niger) [µg/mL]	MIC (Leptosphaeria salvinii) [µg/mL]	MIC (Saccharomyces cerevisiae) [µg/mL]	MIC [4] [µg/mL]	MIC [5] [µg/mL]	MIC (Penicillium) [µg/mL]	50% hemolytic concentration in the presence of human albumin (human erythrocytes)	HC50 [6] [µg/mL]	MIC (Sclerotinia sclerotiorum) [µg/mL]
CCCCCCCC/C=C\CCCCCCCCOCCOCCOP(=O)([O-])OCC[N+](C)(C)C [Example 7, 3,6-Dioxatetracos-15(Z)-enyl 2-trimethylammonioethyl phosphate]	1 to 2	25	3.12	> 20	> 20	10 to 20	no deaths	6.25	8 to 11	2 to 3	25	25	12.5	0.4	25				
CCCCCCCCCCCCOCCOCCOP(=O)([O-])OCC[n+]1ccccc1 [Example 15, 2-[2-Dodecyloxy)ethoxy]ethyl 2-pyridinioethyl phosphate]		25	25	10 to 20	> 20	10 to 20		12.5			25	25	50	> 4	12.5	12.5	several times as high	~10	25
